Key:
[1] = tested on: surface PD-L1 on DAOY and UW228 human MB lines; assay: Surface PD-L1 (flow cytometry) on human MB lines treated with Roscovitine and stimulated with IFNγ; assay type: cell-based; conditions: IFNγ 24 hours
[2] = tested on: surface PD-L1 on MM1 (Medulloblastoma) cells; conditions: same cell lines (MM1, RMS); reported in Dorand et al. Science 2016; cited from earlier work
[3] = tested on: PD-L1 transcript in MM1 WT cells; assay: PD-L1 mRNA expression (qPCR) in MM1 WT cells treated with Roscovitine and stimulated with IFNγ; assay type: cell-based, mouse; conditions: Roscovitine 10 μM or 20 μM, 4 days, IFNγ 100 ng/ml 24 hours
Experimental: Total cellular RNA was isolated from 5×10^6-107 cells using TRIZOL and RNAspin Mini kit (GE Healthcare, UK), treated with DNAseI to eliminate genomic DNA, and quantitated using the NanoDrop2000 spectrophotometer. Reverse transcription (RT) of 1 μg of total RNA was performed with oligo(dT)16 using on using SuperScript First Strand Synthesis System for RT-PCR kit (Life Technologies, Carlsbad, Calif.). The resulting cDNA was used as a template for the amplification of target gene transcripts by real time PCR, using SYBR Green PCR Master Mix (Life Technologies, Carlsbad, Calif.) on the ABI 7300 Real-Time PCR machine (Life Technologies, Carlsbad, Calif.). Target gene expression was calculated using the standard curve method upon normalization to cytochrome c housekeeping gene. The primer sequences were as follows: Cdk5 forward: […]; Cdk5 reverse: […]; cytochrome c forward: […]; cytochrome c reverse: […]; p35 forward: […]; p35 reverse: […]; PD-L1 forward: […] and PD-L1 reverse: […].
Murine MB cell lines MM1 were grown in RPMI supplemented with 10% FBS. A stock solution of Roscovitine (10 mM) or vehicle control-DMSO was diluted in fresh tumor medium and added to samples to achieve a final concentration of 10 μM or 20 μM. After 4 days of treatment, cells were subjected to 100 ng/ml rmIFN-γ (R&D Systems) for 24 hours and then harvested for qPCR analysis.

[4] = tested on: surface PD-L1 on MM1 (Medulloblastoma) cells; assay: Surface PD-L1 expression on MM1 cells upon IFNγ exposure in the presence of compound; assay type: cell-based, mouse
Experimental: (§1) a) Seed wild type MM1 (Medulloblastoma) and RMS 76.9 (Rhabdomyosarcoma) tumor cells (100,000 per well in 6-well plate and 3 ml media). Use PD-L1-deficient tumor cells (crPDL1; genetically manipulated using CRISPR-Cas9 technology) as controls:
(§2) b) Serum starve overnight
(§3) c) Add various concentration of CYC065 in DMSO, along with 100 ng/ml IFNγ
(§4) d) 24 hours later, harvest cells, stain for PD-L1 using anti-mPDL1-PE antibody and analyze by flow cytometry

[5] = tested on: PD-L1, MHC-II and MHC-I surface expression on harvested MM1 tumor cells; assay: IFNγ response of tumor cells harvested on Day 21 from treated mice and cultured in vitro; assay type: cell-based, mouse; conditions: tumors from in vivo treated mice; cultured 7-10 days without compound; IFNγ 100 ng/ml 24 hours
Description: i) Tumor mass was resected on Day 21 and grown in culture for 1 week, followed by 24-hour exposure to IFNγ to assess PD-L1 response in vitro.

[6] = tested on: surface PD-L1 on RMS 76.9 (Rhabdomyosarcoma) cells; assay: Surface PD-L1 expression on RMS 76.9 cells upon IFNγ exposure in the presence of compound; assay type: cell-based, mouse; conditions: 24-hour exposure, IFNγ 100 ng/ml
Experimental: as §1, §2, §3, §4

[7] = tested on: MM1 tumors; assay: In vivo anti-tumor efficacy against subcutaneous MM1 tumors
Experimental: e) 10 8-12 week-old […] male mice per cohort were used for all in vivo tumor growth kinetics experiment.
f) 50,000 tumor cells were inoculated subcutaneously in the flank on Day 0
h) Mice were monitored at least twice a week for tumor growth and tumor size measurements.

[8] = MM1, 24-hour exposure, IFNγ 100 ng/ml

Row | SMILES | surface PD-L1 upregulation upon IFNγ exposure [1] | concentration at which effects on PD-L1 down modulation are shown [2] | PD-L1 transcript [3] | concentration at which PD-L1 response upon IFNγ stimulation is completely abrogated [4, 8] | concentration at which cells began to show PD-L1 down-modulation [4, 8] | increase in potency for PD-L1 down modulation as compared to Roscovitin ([4]; MM1 and RMS cell lines) | MHC-II/MHC-I response upon in vitro exposure to IFNγ [5] | PD-L1 response upon in vitro exposure to IFNγ [5] | concentration at which PD-L1 response upon IFNγ stimulation is completely abrogated [6] | mortality ([7]; 50 mg/kg daily×5 days/week by gavage in water, prolonged exposure, MM1-bearing C57BL/6 mice) | tumor size ([7]; 50 mg/kg daily×5 days/week by gavage, start Day 0 or Day 7)
1 | CC[C@H](CO)Nc1nc(NCc2ccccc2)c2ncn(C(C)C)c2n1 [Roscovitine, 6-benzylamino-2-[(R)-1-ethyl-2-hydroxyethylamino]-9-isopropylpurine] | diminished surface PD-L1 upregulation | ≥ 10 µM | dose-dependent decrease | – | – | – | – | – | – | – | –
2 | CC[C@H](Nc1nc(NCc2cnc(C)cc2C)c2ncn(C(C)C)c2n1)[C@@H](C)O [CYC065] | – | – | – | 1 µM | 0.5 µM | > 10 fold | enhanced MHC-II/MHC-I enhancement | reduced PD-L1 response | 1 µM | 70% | significantly smaller sized tumor

Source: US11124571B2, “Methods of sensitizing cancer to immunotherapy” (CASE WESTERN RESERVE UNIVERSITY, priority 2016, dated 2021)
